# Measured values: patent US11725011B2, “Bicyclic urea kinase inhibitors and uses thereof” (The Broad Institute, Inc., priority 2016, dated 2023)
# Legend:
# [1] = Viability loss (Table 4); format: cell-based
# [2] = molecular target: AURKA (Homo sapiens (Human), UniProt O14965); assay: KINOMEscan; format: binding; settings: 1 uM
# [3] = molecular target: BRAF (V600E) (Homo sapiens (Human), UniProt P15056, V600E); assay: KINOMEscan; format: binding; settings: 1 uM
# [4] = molecular target: CAMK1G (Homo sapiens (Human), UniProt Q96NX5); assay: KINOMEscan; format: binding; settings: 1 uM
# [5] = molecular target: CDK9 (Homo sapiens (Human), UniProt P50750); assay: KINOMEscan; format: binding; settings: 1 uM
# [6] = molecular target: CDKL5 (Homo sapiens (Human), UniProt O76039); assay: KINOMEscan; format: binding; settings: 1 uM
# [7] = molecular target: CHEK2 (Homo sapiens (Human), UniProt O96017); assay: KINOMEscan; format: binding; settings: 1 uM
# Sequence of CHEK2 (O96017 whole entry): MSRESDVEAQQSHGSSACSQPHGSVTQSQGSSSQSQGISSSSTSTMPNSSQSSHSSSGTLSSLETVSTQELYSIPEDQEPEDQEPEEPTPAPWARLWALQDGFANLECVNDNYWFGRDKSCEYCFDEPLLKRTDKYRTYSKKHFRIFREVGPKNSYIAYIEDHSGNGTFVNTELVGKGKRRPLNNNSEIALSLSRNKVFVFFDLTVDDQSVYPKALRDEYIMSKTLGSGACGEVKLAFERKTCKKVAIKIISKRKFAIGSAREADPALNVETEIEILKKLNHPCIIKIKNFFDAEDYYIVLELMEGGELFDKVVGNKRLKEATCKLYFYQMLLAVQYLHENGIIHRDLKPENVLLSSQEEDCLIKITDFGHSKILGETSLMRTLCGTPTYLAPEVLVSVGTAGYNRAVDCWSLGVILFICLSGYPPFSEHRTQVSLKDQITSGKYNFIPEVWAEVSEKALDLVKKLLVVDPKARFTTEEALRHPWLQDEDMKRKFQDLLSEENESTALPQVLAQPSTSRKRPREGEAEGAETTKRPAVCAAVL
# [8] = molecular target: CIT (Homo sapiens (Human), UniProt O14578); assay: KINOMEscan; format: binding; settings: 1 uM
# Sequence of CIT (O14578 whole entry): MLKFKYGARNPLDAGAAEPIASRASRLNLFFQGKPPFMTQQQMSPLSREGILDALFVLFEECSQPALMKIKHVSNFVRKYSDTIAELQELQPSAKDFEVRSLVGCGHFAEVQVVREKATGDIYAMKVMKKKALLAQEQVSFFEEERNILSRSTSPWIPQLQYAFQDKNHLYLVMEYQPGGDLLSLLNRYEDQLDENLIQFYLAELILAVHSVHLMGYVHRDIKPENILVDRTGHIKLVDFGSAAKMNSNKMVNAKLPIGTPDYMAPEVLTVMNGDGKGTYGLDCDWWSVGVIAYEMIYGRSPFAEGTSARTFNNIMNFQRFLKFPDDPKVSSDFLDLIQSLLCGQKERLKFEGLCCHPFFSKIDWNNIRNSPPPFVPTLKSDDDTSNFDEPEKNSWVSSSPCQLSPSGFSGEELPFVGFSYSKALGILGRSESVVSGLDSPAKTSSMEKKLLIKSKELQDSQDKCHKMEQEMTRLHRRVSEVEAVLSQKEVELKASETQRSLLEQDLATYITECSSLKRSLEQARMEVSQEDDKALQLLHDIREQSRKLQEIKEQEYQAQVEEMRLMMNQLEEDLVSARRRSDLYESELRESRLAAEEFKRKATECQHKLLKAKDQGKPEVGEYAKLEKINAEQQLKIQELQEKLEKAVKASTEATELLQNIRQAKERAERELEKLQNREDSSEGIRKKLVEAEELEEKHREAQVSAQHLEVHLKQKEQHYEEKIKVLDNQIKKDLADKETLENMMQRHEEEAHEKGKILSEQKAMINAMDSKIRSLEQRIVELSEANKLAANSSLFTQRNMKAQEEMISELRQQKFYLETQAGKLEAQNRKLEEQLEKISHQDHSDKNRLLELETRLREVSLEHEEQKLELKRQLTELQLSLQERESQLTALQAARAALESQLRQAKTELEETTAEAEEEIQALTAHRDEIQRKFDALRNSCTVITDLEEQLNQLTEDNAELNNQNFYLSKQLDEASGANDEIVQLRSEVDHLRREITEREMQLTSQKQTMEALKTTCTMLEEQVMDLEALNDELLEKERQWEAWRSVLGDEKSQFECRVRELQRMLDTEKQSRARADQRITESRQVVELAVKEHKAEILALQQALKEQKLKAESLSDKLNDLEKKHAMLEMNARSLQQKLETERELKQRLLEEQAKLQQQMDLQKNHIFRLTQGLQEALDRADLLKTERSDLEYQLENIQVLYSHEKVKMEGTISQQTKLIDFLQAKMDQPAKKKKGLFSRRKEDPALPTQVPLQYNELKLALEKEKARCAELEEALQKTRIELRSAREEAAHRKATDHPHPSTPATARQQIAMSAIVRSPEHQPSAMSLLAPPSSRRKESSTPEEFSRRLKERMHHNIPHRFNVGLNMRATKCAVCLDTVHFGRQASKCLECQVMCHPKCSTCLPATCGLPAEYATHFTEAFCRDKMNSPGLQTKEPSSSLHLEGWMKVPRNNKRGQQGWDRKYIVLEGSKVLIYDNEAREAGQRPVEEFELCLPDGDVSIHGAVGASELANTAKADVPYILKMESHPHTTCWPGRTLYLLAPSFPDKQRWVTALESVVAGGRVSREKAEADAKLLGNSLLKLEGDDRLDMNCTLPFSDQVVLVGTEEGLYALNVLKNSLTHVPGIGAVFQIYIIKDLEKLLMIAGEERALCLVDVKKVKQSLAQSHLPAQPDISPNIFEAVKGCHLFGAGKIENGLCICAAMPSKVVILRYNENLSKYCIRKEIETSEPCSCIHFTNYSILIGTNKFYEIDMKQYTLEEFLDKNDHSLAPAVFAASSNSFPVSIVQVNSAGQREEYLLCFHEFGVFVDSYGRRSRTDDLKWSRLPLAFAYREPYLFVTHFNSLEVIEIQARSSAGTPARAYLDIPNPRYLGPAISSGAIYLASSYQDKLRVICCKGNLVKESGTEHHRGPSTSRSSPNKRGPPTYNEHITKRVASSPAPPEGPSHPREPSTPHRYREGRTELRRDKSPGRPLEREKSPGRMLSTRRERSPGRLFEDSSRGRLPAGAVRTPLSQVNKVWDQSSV
# [9] = molecular target: CSNK1D (Homo sapiens (Human), UniProt P48730); assay: KINOMEscan; format: binding; settings: 1 uM
# [10] = molecular target: CSNK1G1 (Homo sapiens (Human), UniProt Q9HCP0); assay: KINOMEscan; format: binding; settings: 1 uM
# [11] = molecular target: CSNK1G2 (Homo sapiens (Human), UniProt P78368); assay: KINOMEscan; format: binding; settings: 1 uM
# Sequence of CSNK1G2 (P78368 whole entry): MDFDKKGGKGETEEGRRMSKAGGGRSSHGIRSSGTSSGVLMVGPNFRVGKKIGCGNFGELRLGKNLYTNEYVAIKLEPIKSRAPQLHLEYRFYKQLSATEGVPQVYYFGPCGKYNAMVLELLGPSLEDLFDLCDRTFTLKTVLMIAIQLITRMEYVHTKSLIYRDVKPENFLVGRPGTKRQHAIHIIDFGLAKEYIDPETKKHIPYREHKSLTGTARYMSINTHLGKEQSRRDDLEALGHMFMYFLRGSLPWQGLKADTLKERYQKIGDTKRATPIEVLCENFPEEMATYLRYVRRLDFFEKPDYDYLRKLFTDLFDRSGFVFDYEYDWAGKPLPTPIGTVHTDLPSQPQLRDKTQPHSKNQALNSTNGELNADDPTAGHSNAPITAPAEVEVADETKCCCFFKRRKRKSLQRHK
# [12] = molecular target: DAPK2 (Homo sapiens (Human), UniProt Q9UIK4); assay: KINOMEscan; format: binding; settings: 1 uM
# [13] = molecular target: ERK8 (Homo sapiens (Human), UniProt Q8TD08); assay: KINOMEscan; format: binding; settings: 1 uM
# [14] = molecular target: FLT3 (Homo sapiens (Human), UniProt P36888); assay: KINOMEscan; format: binding; settings: 1 uM
# [15] = molecular target: FLT3 (D835Y) (Homo sapiens (Human), UniProt P36888, D835Y); assay: KINOMEscan; format: binding; settings: 1 uM
# [16] = molecular target: GAK (Homo sapiens (Human), UniProt O14976); assay: KINOMEscan; format: binding; settings: 1 uM
# [17] = molecular target: GRK4 (Homo sapiens (Human), UniProt P32298); assay: KINOMEscan; format: binding; settings: 1 uM
# [18] = molecular target: αK3A (Homo sapiens (Human), UniProt P49840); assay: KINOMEscan; format: binding; settings: 1 uM
# [19] = molecular target: HIPK2 (Homo sapiens (Human), UniProt Q9H2X6); assay: KINOMEscan; format: binding; settings: 1 uM
# [20] = molecular target: IRAK1 (Homo sapiens (Human), UniProt P51617); assay: KINOMEscan; format: binding; settings: 1 uM
# [21] = molecular target: IRAK3 (Homo sapiens (Human), UniProt Q9Y616); assay: KINOMEscan; format: binding; settings: 1 uM
# [22] = molecular target: JAK1 (JH2 domain-pseudokinase) (Homo sapiens (Human), UniProt P23458); assay: KINOMEscan; format: binding; settings: 1 uM
# [23] = molecular target: KIT (V559D) (Homo sapiens (Human), UniProt P10721, V559D); assay: KINOMEscan; format: binding; settings: 1 uM
# [24] = molecular target: KIT (V559D, T670I) (Homo sapiens (Human), UniProt P10721, T670I/V559D); assay: KINOMEscan; format: binding; settings: 1 uM
# [25] = molecular target: LRRK2 (Homo sapiens (Human), UniProt Q5S007); assay: KINOMEscan; format: binding; settings: 1 uM
# [26] = molecular target: LTK (Homo sapiens (Human), UniProt P29376); assay: KINOMEscan; format: binding; settings: 1 uM
# [27] = molecular target: MAP3K4 (Homo sapiens (Human), UniProt Q9Y6R4); assay: KINOMEscan; format: binding; settings: 1 uM
# [28] = molecular target: MAP4K2 (Homo sapiens (Human), UniProt Q12851); assay: KINOMEscan; format: binding; settings: 1 uM
# [29] = molecular target: MAP4K5 (Homo sapiens (Human), UniProt Q9Y4K4); assay: KINOMEscan; format: binding; settings: 1 uM
# [30] = molecular target: MLK3 (Homo sapiens (Human), UniProt Q16584); assay: KINOMEscan; format: binding; settings: 1 uM
# Sequence of MLK3 (Q16584 whole entry): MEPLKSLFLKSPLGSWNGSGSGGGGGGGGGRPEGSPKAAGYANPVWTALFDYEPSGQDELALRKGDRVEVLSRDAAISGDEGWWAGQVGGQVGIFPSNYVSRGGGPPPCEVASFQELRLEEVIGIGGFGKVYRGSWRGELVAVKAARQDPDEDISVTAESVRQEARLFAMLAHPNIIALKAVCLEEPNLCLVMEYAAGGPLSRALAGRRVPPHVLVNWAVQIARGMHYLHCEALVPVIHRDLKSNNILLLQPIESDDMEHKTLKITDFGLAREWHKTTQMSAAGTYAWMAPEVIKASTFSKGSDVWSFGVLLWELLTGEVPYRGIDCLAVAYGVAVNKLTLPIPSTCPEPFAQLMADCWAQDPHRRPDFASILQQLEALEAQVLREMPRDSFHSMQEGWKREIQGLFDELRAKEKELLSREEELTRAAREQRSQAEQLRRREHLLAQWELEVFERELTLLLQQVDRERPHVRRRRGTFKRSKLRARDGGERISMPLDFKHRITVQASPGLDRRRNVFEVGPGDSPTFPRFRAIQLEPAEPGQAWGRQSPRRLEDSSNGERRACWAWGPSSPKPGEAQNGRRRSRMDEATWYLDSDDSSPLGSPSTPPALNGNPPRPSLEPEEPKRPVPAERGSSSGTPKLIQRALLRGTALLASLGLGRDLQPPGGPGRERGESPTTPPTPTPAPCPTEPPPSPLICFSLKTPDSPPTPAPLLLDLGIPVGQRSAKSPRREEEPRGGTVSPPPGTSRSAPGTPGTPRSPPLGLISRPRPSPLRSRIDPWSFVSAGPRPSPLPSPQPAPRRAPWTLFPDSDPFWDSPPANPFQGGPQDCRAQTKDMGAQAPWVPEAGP
# [31] = molecular target: NDR2 (Homo sapiens (Human), UniProt Q9Y2H1); assay: KINOMEscan; format: binding; settings: 1 uM
# [32] = molecular target: NLK (Homo sapiens (Human), UniProt Q9UBE8); assay: KINOMEscan; format: binding; settings: 1 uM
# [33] = molecular target: PFTAIRE2 (Homo sapiens (Human), UniProt Q96Q40); assay: KINOMEscan; format: binding; settings: 1 uM
# Sequence of PFTAIRE2 (Q96Q40 whole entry, looked up): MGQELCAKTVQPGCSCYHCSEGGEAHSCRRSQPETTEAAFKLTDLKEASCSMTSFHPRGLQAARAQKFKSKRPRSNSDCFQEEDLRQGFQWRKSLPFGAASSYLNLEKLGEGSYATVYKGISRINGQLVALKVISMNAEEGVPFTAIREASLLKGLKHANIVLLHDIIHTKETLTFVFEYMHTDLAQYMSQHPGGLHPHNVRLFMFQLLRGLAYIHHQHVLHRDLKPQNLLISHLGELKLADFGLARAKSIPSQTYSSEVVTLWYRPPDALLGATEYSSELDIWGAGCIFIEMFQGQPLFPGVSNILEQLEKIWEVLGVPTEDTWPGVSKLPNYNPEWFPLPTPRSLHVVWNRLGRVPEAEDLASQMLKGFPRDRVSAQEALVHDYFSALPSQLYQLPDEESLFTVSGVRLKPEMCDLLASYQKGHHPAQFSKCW
# [34] = molecular target: PRKX (Homo sapiens (Human), UniProt P51817); assay: KINOMEscan; format: binding; settings: 1 uM
# [35] = molecular target: RPS6KA5 (Kin.Dom.1-N-terminal) (Homo sapiens (Human), UniProt O75582); assay: KINOMEscan; format: binding; settings: 1 uM
# [36] = molecular target: RSK1 (Kin.Dom.2-C-terminal) (Homo sapiens (Human), UniProt Q15418); assay: KINOMEscan; format: binding; settings: 1 uM
# [37] = molecular target: STK36 (Homo sapiens (Human), UniProt Q9NRP7); assay: KINOMEscan; format: binding; settings: 1 uM
# [38] = molecular target: TLK2 (Homo sapiens (Human), UniProt Q86UE8); assay: KINOMEscan; format: binding; settings: 1 uM
# [39] = molecular target: TRKA (Homo sapiens (Human), UniProt P04629); assay: KINOMEscan; format: binding; settings: 1 uM
# Sequence of TRKA (P04629 33-796): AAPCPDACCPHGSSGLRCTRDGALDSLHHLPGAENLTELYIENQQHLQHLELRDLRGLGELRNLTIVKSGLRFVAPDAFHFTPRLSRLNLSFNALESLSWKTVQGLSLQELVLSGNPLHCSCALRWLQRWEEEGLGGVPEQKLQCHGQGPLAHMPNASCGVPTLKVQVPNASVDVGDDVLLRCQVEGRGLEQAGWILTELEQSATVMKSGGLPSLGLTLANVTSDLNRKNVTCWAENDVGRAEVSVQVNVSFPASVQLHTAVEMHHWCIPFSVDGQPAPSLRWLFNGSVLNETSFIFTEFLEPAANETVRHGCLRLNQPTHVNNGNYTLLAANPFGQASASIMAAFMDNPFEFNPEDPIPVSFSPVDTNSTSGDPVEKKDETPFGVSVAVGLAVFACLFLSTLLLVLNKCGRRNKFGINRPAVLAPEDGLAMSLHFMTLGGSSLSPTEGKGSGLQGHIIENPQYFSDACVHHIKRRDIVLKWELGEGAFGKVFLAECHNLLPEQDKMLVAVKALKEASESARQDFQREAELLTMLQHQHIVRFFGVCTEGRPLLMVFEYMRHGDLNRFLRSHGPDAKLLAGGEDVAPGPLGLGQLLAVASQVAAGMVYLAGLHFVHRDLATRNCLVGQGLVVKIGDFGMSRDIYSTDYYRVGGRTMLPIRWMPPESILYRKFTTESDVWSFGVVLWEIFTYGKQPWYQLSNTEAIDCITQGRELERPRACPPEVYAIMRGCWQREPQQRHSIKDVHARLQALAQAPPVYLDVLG
# [40] = molecular target: ULK2 (Homo sapiens (Human), UniProt Q8IYT8); assay: KINOMEscan; format: binding; settings: 1 uM
# [41] = molecular target: ZAP70 (Homo sapiens (Human), UniProt P43403); assay: KINOMEscan; format: binding; settings: 1 uM
smiles,measurement,setting,value
COc1ccc(N2C(=O)N(c3c(C)cccc3C)Cc3cnc(Nc4ccc(N5CCN(C)CC5)cc4)nc32)c(OC)c1 [HG-11-136-01],Viability loss AC40,[1],97 nM
same,Viability loss data mode,[1],decreasing
same,KINOMEscan AURKA,[2],0
same,KINOMEscan BRAF (V600E),[3],13
same,KINOMEscan CAMK1G,[4],95
same,KINOMEscan CDK9,[5],91
same,KINOMEscan CDKL5,[6],98
same,KINOMEscan CHEK2,[7],46
same,KINOMEscan CIT,[8],58
same,KINOMEscan CSNK1D,[9],100
same,KINOMEscan CSNK1G1,[10],92
same,KINOMEscan CSNK1G2,[11],100
same,KINOMEscan DAPK2,[12],88
same,KINOMEscan ERK8,[13],88
same,KINOMEscan FLT3,[14],34
same,KINOMEscan FLT3 (D835Y),[15],14
same,KINOMEscan GAK,[16],6.8
same,KINOMEscan GRK4,[17],26
same,KINOMEscan αK3A,[18],100
same,KINOMEscan HIPK2,[19],0.95
same,KINOMEscan IRAK1,[20],4.4
same,KINOMEscan IRAK3,[21],38
same,KINOMEscan JAK1 (JH2 domain-pseudokinase),[22],8.1
same,KINOMEscan KIT (V559D),[23],0
same,"KINOMEscan KIT (V559D, T670I)",[24],55
same,KINOMEscan LRRK2,[25],21
same,KINOMEscan LTK,[26],18
same,KINOMEscan MAP3K4,[27],16
same,KINOMEscan MAP4K2,[28],0.3
same,KINOMEscan MAP4K5,[29],0.3
same,KINOMEscan MLK3,[30],28
same,KINOMEscan NDR2,[31],28
same,KINOMEscan NLK,[32],7.6
same,KINOMEscan PFTAIRE2,[33],78
same,KINOMEscan PRKX,[34],100
same,KINOMEscan RPS6KA5 (Kin.Dom.1-N-terminal),[35],100
same,KINOMEscan RSK1 (Kin.Dom.2-C-terminal),[36],9.7
same,KINOMEscan STK36,[37],0
same,KINOMEscan TLK2,[38],92
same,KINOMEscan TRKA,[39],41
same,KINOMEscan ULK2,[40],2.2
same,KINOMEscan ZAP70,[41],25
